Drawing on ChEMBL document CHEMBL1156479, “Reversine increases the plasticity of lineage-committed mammalian cells” (Proc Natl Acad Sci U S A, 2007), this text covers IC50 and inhibition for one compound.

Experiment [1] is described as follows: Inhibition of ATPase activity of myosin 2 in mouse C2C12 myoblast assessed as release of inorganic phosphates.
Experiment [2] concerns the target Dual specificity mitogen-activated protein kinase kinase 1 (Mus musculus, UniProt P31938). Description: Inhibition of MEK1 in mouse C2C12 by ERK2 phosphorylation assay.
Experiment [3] concerns C2C12. Description: Inhibition of myotube formation in mouse C2C12 myoblasts at 20 nM. As to conditions: C2C12, read-out: INH.

A value given as a limit tells only on which side of the number the result lay.

Chain of Dual specificity mitogen-activated protein kinase kinase 1 (P31938 whole entry): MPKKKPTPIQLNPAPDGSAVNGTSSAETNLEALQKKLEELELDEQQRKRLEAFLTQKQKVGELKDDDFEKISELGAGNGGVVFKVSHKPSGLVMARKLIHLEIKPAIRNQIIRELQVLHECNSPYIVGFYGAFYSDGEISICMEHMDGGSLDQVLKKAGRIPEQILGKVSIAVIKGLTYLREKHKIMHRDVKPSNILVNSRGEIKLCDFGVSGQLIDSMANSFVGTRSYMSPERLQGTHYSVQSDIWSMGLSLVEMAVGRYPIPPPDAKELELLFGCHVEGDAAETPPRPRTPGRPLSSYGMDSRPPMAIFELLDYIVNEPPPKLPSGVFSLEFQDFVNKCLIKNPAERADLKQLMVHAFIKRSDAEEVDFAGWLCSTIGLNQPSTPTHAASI

For the compound `c1nc2c(NC3CCCCC3)nc(Nc3ccc(N4CCOCC4)cc3)nc2[nH]1` [REVERSINE], the IC50 in experiment [1] amounted to 10 nM; in experiment [2], 8 nM. Also, the inhibition at 0.02 µM in experiment [3] is greater than 60%.

As a reminder, the IC50 is the concentration needed to halve the response being measured.
